# Results as given in patent publication US8987193B2, “Nisin derivatives and the use thereof” (University College Cork—National University of Ireland, Cork, priority 2008, dated 2015).
# Ends that are not written are not given here.
# Legend:
# Assay in all cases: Deferred antagonism assay
# Assay type in all cases: cell-based
# [1] = test system: Staph. aureus DPC5245; conditions: producing strain; diameter of zone minus 5 mm; average of duplicates; St. aureus DPC5245
# Procedure, shortened: (§1)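 Producer strains replicated on GM17 agar, grown overnight, then overlaid with soft agar (0.75% w/v) seeded with indicator strain. Zone size = clearing diameter minus 5 mm growth diameter, relative to NZ9800 pCI372nisA control; mean of duplicates.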
# [2] = test system: Staph. aureus ST528 (MRSA); conditions: producing strain, diameter of zone minus diameter of bacterial growth (5 mm), average of duplicates
# Procedure, shortened: as §1
# [3] = test system: Strep. agalactiae ATCC13813; conditions: producing strain, diameter of zone minus 5 mm, average of duplicates
# [4] = test system: Listeria innocua CLIP; set-up: key: −, no inhibition; (+), clear zone directly above the colony; +, 1-5 mm zone; ++, 6-10 mm zone; +++, <10 mm zone; conditions: nisin strain
# Description: (§2) Deferred antagonism assays were performed by replicating strains on GM17 or GM17 x-gal agar plates and allowing them to grow overnight before overlaying with either GM17/BHI/TS/MH agar (0.75% w/v agar) seeded with the appropriate indicator strain. Zone size was calculated as the diameter of the zone of clearing minus the diameter of bacterial growth (5 mm) For higher throughput screening of N20PXX, XM21VX, XXK22T and XXX banks deferred antagonism assays were performed by replicating strains using a 96 pin replicator (Boekel) or spotting 5 μl of a fresh overnight culture on GM17 agar plates and allowing them to grow overnight. […] Additional sets of indicators were employed to further assess/reassess the bioactivity of a number of strains. […] For well-diffusion assays molten agar was cooled to 48° C. and seeded with the appropriate indicator strain. The inoculated medium was rapidly transferred into sterile Petri plates in 50 ml volumes, allowed to solidify and dried. Wells (4.6 mm in diameter) were then made in the seeded plates. Purified nisin and mutant nisins were resuspended in 0.005% acetic acid, serially diluted, 50 μl volumes were dispensed into the aforementioned wells and the plates incubated at 37° C. overnight. Bioactivity was expressed as arbitrary units/ml (AU/ml) and calculated as the reciprocal of the highest dilution that gave a definite zone multiplied by the conversion factor (i.e. 20 when 50 μl was used) (Ryan et al., 1996).
# [5] = test system: Listeria monocytogenes N3008; set-up: key: −, no inhibition; (+), clear zone directly above the colony; +, 1-5 mm zone; ++, 6-10 mm zone; +++, <10 mm zone; conditions: nisin strain; L. monocytogenes N3008
# Description: as §2
Substance,zone size relative to that of the NZ9800 pCI372nisA control [1],zone size relative to that of the NZ9800 pCI372nisA control [2],zone size relative to that of the NZ9800 pCI372nisA control [3],Activity score (zone) [4],Activity score (zone) [5]
"NisinA M21S (ITSISLCTPGCKTGALMGCNSKTATCHCSIHVSK; not fully specified; also: lantibiotic nisin: dehydrated residues and thioether rings not placed; UniProt P13068 24-57, looked up, variant M21S) [nisin A derivative, hinge substitution M21S]",110%,105%,110%,"+ (+, 1-5 mm zone)","++ (++, 6-10 mm zone)"
"NisinA M21I (ITSISLCTPGCKTGALMGCNIKTATCHCSIHVSK; not fully specified; also: lantibiotic: lanthionine rings and dehydro residues not placed; UniProt P13068 24-57, looked up, variant M21I) [nisin A derivative, hinge substitution M21I]",115%,107%,92%,−,"+ (+, 1-5 mm zone)"
"NisinA K22A (ITSISLCTPGCKTGALMGCNMATATCHCSIHVSK; not fully specified; also: lantibiotic: lanthionine rings and dehydro residues not placed; UniProt P13068 24-57, looked up, variant K22A) [nisin A derivative, hinge substitution K22A]",117%,126%,137%,"+ (+, 1-5 mm zone)","+ (+, 1-5 mm zone)"
"NisinA M21G (ITSISLCTPGCKTGALMGCNGKTATCHCSIHVSK; not fully specified; also: lantibiotic: lanthionine rings and dehydro residues not placed; UniProt P13068 24-57, looked up, variant M21G) [nisin A derivative, hinge substitution M21G]",123%,125%,115%,"+ (+, 1-5 mm zone)",−
